Each structure is given as a SMILES string. Substitutions are numbered along the chain they refer to.

One compound from publication PMC9928189 (ACS catalysis, 2022) can be followed below.

Holding throughout (test): X-ray crystal structure
Holding throughout (format): binding

For experiment [1], the target named is T1, MroM-A1 (Mycena rosella, UniProt A0A9X9ZA27).
T1 sequence (A0A9X9ZA27 4-400): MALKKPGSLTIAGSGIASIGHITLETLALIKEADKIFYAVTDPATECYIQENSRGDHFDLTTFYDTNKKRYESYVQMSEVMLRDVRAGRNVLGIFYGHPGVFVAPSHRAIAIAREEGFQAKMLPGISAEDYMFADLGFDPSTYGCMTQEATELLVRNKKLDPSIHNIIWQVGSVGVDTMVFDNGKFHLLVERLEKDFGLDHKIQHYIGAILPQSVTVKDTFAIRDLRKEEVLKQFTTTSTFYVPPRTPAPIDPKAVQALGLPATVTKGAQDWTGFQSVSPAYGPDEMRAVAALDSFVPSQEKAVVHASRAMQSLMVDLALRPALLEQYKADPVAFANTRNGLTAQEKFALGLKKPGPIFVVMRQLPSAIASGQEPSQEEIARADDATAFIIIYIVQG
Conditions: 1.79 Å; core peptide A1 fused and N-methylated.

Experiment [2] deals with T2, MroM-A2 (Mycena rosella, UniProt A0A9X9ZA29).
T2 sequence (A0A9X9ZA29 4-400): T1 sequence (A0A9X9ZA27 4-400) with F389L, I390A, I391L, I392V, Y393V, I394V, V395I, Q396V, G397Q
Particulars: 1.86 Å; core peptide A2 fused and N-methylated.

In experiment [3] the target is T3, MroM-CspL (Mycena rosella, UniProt A0A9X9ZA30).
T3 sequence (A0A9X9ZA30 4-402): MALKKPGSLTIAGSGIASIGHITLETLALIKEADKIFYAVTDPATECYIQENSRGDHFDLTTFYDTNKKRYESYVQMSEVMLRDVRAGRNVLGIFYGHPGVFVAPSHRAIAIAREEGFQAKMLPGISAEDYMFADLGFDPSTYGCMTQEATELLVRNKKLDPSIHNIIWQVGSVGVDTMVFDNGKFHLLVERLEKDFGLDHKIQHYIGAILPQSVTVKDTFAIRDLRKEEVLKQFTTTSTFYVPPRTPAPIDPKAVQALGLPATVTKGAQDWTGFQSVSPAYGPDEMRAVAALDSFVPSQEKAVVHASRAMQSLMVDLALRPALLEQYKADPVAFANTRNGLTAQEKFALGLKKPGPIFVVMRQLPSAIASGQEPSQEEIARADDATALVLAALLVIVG
Particulars: 1.93 Å; cyclosporin-like core fused and N-methylated.

Regarding `Nc1ncnc2c1ncn2[C@@H]1O[C@H](CSCC[C@H](N)C(=O)O)[C@@H](O)[C@H]1O` [S-adenosylhomocysteine], the X-ray crystal structure entry in experiment [1], in experiment [2] and in experiment [3] was “Each structure was determined in complex with product S-adenosylhomocysteine (SAH)” each time.
